Assay results from paper PMC9841532, “Exploring the Effect of Halogenation in a Series of Potent and Selective A2B Adenosine Receptor Antagonists” (Journal of Medicinal Chemistry, 2022).
Like-named read-outs stand apart in the source and are kept apart here.

What was measured:
hA1AR = biological target: T1, hA1AR (Homo sapiens, UniProt P30542); assay: Radioligand binding competition, [3H]DPCPX, membranes from CHO-A1 cells; details: 1 μM, [3H]DPCPX, human CHO cells, n = 2
T1 sequence (P30542 1-326): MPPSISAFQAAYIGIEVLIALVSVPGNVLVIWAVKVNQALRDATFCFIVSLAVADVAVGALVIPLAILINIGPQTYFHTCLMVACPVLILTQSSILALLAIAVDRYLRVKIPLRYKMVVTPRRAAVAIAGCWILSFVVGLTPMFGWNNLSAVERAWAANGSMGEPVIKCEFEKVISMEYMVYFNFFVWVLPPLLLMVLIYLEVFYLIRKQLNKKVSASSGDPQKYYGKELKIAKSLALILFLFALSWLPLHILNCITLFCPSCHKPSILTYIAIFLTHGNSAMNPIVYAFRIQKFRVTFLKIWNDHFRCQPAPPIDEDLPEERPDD
Protocol: (§1) All ligands reported in Tables 1–5 were obtained and tested as racemic mixtures. The whole set was evaluated in silico with a combination of a Rdkit[37] PAINS filter and Instant JChem from Chemaxon (https://www.chemaxon.com), to rule out the possibility that these ligands can be promiscuous pan-assay interference compounds (PAINS) and to assess their bioavailability, respectively. […] The stereoisomers of selected compounds were obtained by chiral resolution and tested at the four human AR subtypes in their enantiopure forms (Table 6).
(§2) A brief description is given below. […] Non-specific binding was determined in the presence of 10 μM R-PIA. The reaction mixture was incubated at 25 °C for 60 min. […] The reaction mixture was incubated at 25 °C for 30 min. […] The reaction mixture was incubated at 25 °C for 30 min. […] Non-specific binding was determined in the presence of 100 μM R-PIA. […] After the incubation time, membranes were washed and filtered and radioactivity was detected in a MicroBeta TriLux reader (PerkinElmer).

hA3AR = biological target: T2, hA3AR (Homo sapiens, UniProt P0DMS8); assay: Radioligand binding competition, [3H]NECA, membranes from HeLa-A3 cells; details: 1 μM, [3H]NECA, human HeLa cells, n = 2
T2 construct: expressed in transfected cells; host or cells: HeLa (HeLa-A3) cell membranes
T2 sequence (P0DMS8 1-318): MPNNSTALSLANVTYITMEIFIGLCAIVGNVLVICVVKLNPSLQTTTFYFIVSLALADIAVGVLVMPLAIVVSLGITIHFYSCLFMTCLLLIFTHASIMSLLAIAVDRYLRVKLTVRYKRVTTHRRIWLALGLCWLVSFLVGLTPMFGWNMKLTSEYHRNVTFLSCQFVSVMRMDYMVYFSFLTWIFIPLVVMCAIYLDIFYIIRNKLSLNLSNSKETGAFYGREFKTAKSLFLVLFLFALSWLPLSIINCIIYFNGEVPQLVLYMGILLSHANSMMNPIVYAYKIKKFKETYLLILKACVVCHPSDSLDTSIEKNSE
Protocol: as §1, §2

hA2AAR = biological target: T3, hA2AAR (Homo sapiens, UniProt P29274); assay: Radioligand binding competition, [3H]ZM241385, membranes from HeLa-A2A cells; details: 1 μM, [3H]ZM241385, human HeLa cells, n = 2
T3 construct: expressed in transfected cells; host or cells: HeLa (HeLa-A2A) cell membranes
Protocol: as §1, §2

hA2BAR = biological target: T4, hA2BAR (Homo sapiens, UniProt P29275); assay: Radioligand binding competition, [3H]DPCPX, membranes from HEK-293-A2B cells; set-up: Exp. dG: unit not given here; details: for % at 1 μM hA2B (percentage displacement of specific binding): [3H]DPCPX, human HEK-293 cells, n = 2; for Ki: read-out: Ki hA2B; for Exp. dG: experimental binding free energy, Supplementary Table S3, unit not given (errors in kcal/mol)
T4 construct: host or cells: HEK-293 (HEK-293-A2B) cell membranes
T4 sequence (P29275 1-332): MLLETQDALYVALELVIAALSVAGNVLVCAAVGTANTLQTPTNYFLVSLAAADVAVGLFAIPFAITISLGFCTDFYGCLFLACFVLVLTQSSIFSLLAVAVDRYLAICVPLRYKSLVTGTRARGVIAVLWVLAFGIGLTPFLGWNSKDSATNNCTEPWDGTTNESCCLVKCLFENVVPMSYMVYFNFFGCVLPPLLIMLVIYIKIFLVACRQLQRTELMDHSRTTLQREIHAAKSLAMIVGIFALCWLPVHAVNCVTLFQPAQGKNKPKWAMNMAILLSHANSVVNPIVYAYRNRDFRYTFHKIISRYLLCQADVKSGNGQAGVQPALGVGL
Protocol: as §1, §2

[1] = displacement of specific [3H]DPCPX binding in human HEK-293 cells, n = 3

T3 sequence (P29274 whole entry): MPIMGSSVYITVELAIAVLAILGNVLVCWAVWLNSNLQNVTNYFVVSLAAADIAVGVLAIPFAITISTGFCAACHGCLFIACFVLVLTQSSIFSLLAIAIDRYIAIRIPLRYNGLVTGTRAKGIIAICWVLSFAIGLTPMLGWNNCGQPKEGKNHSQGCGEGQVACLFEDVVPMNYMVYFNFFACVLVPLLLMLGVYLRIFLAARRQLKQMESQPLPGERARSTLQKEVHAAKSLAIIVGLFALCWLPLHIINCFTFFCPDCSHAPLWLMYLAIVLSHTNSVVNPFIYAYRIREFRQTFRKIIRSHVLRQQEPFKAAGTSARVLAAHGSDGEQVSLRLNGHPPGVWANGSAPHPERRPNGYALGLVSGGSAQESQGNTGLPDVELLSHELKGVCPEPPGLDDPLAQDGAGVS

| % at 1 μM hA1 (percentage displacement of specific binding) (hA1AR) [%] | % at 1 μM hA3 (percentage displacement of specific binding) (hA3AR) [%] | % at 1 μM hA2A (percentage displacement of specific binding) (hA2AAR) [%] | % at 1 μM hA2B (percentage displacement of specific binding) (hA2BAR) [%] | Ki (hA2BAR; [1]) [µM] | Exp. dG (hA2BAR) | Ki (hA2BAR) [µM] | Compound |
| --- | --- | --- | --- | --- | --- | --- | --- |
| 2 | 11 | 1 | 9 | – | – | – | CCOC(=O)C1=C(C)Nc2nc3cc(Cl)c(Cl)cc3n2C1c1cccs1 (stereo not shown) [14m] |
| 1 | 9 | 4 | 1 | – | – | – | CC1=C(C(=O)OC(C)C)C(c2cccs2)n2c(nc3cc(Cl)c(Cl)cc32)N1 (stereo not shown) [14n] |
| 5 | 1 | 1 | 9 | – | – | – | CCOC(=O)C1=C(C)Nc2nc3cc(Cl)c(Cl)cc3n2C1c1ccsc1 (stereo not shown) [14o] |
| 2 | 6 | 1 | – | 0.359 ± 0.004 | – | – | CC1=C(C(=O)OC(C)C)C(c2ccsc2)n2c(nc3cc(Cl)c(Cl)cc32)N1 (stereo not shown) [14p] |
| 1 | 2 | 17 | 37 | – | – | – | CCOC(=O)C1=C(C)Nc2nc3cc(Br)c(Br)cc3n2C1c1ccco1 (stereo not shown) [14q] |
| 11 | 21 | 28 | – | 0.0626 ± 0.0019 | – | – | CC1=C(C(=O)OC(C)C)C(c2ccco2)n2c(nc3cc(Br)c(Br)cc32)N1 (stereo not shown) [14r] |
| 2 | 10 | 2 | 7 | – | – | – | CCOC(=O)C1=C(C)Nc2nc3cc(Br)c(Br)cc3n2C1c1ccoc1 (stereo not shown) [14s] |
| 1 | 9 | 1 | 32 | – | – | – | CC1=C(C(=O)OC(C)C)C(c2ccoc2)n2c(nc3cc(Br)c(Br)cc32)N1 (stereo not shown) [14t] |
| 2 | 5 | 7 | 12 | – | – | – | CCOC(=O)C1=C(C)Nc2nc3cc(Br)c(Br)cc3n2C1c1cccs1 (stereo not shown) [14u] |
| 1 | 3 | 1 | 9 | – | – | – | CC1=C(C(=O)OC(C)C)C(c2cccs2)n2c(nc3cc(Br)c(Br)cc32)N1 (stereo not shown) [14v] |
| 2 | 4 | 7 | 47 | – | – | – | CCOC(=O)C1=C(C)Nc2nc3cc(Br)c(Br)cc3n2C1c1ccsc1 (stereo not shown) [14w] |
| 4 | 8 | 1 | 9 | – | – | – | CC1=C(C(=O)OC(C)C)C(c2ccsc2)n2c(nc3cc(Br)c(Br)cc32)N1 (stereo not shown) [14x] |
| 16 | 10 | 2 | – | 0.0675 ± 0.0031 | -9.777 | – | CCOC(=O)C1=C(C)Nc2nc3ccc(F)cc3n2C1c1ccco1 (stereo not shown) [15a] |
| 32 | 5 | 3 | – | 0.0122 ± 0.0012 | -10.79 | – | CC1=C(C(=O)OC(C)C)C(c2ccco2)n2c(nc3ccc(F)cc32)N1 (stereo not shown) [15b] |
| 26 | 5 | 21 | – | 0.025 ± 0.0015 | -9.361 | – | CCOC(=O)C1=C(C)Nc2nc3ccc(F)cc3n2C1c1ccoc1 (stereo not shown) [15c] |
| 25 | 6 | 11 | – | 0.136 ± 0.007 | -10.36 | – | CC1=C(C(=O)OC(C)C)C(c2ccoc2)n2c(nc3ccc(F)cc32)N1 (stereo not shown) [15d] |
| 25 | 11 | 1 | 37 | – | – | – | CCOC(=O)C1=C(C)Nc2nc3ccc(F)cc3n2C1c1cccs1 (stereo not shown) [15e] |
| 11 | 6 | 2 | 23 | – | – | – | CC1=C(C(=O)OC(C)C)C(c2cccs2)n2c(nc3ccc(F)cc32)N1 (stereo not shown) [15f] |
| 7 | 3 | 1 | – | 1.03 ± 0.095 | -8.162 | – | CCOC(=O)C1=C(C)Nc2nc3ccc(F)cc3n2C1c1ccsc1 (stereo not shown) [15g] |
| 1 | 1 | 1 | – | 0.764 ± 0.011 | -8.34 | – | CC1=C(C(=O)OC(C)C)C(c2ccsc2)n2c(nc3ccc(F)cc32)N1 (stereo not shown) [15h] |
| 26 | 4 | 2 | 18 | – | – | – | CCOC(=O)C1=C(C)Nc2nc3ccc(Cl)cc3n2C1c1ccco1 (stereo not shown) [15i] |
| 22 | 3 | 30 | – | 0.0473 ± 0.0019 | -9.987 | ~0.045 | CCOC(=O)C1=C(C)Nc2nc3ccc(Cl)cc3n2C1c1ccoc1 (stereo not shown) [15k] |
| 6 | 3 | 4 | 50 | – | – | – | CC1=C(C(=O)OC(C)C)C(c2ccoc2)n2c(nc3ccc(Cl)cc32)N1 (stereo not shown) [15l] |
| 2 | 1 | 3 | 1 | – | – | – | CCOC(=O)C1=C(C)Nc2nc3ccc(Cl)cc3n2C1c1cccs1 (stereo not shown) [15m] |
| 1 | 1 | 3 | 7 | – | – | – | CC1=C(C(=O)OC(C)C)C(c2cccs2)n2c(nc3ccc(Cl)cc32)N1 (stereo not shown) [15n] |
| 4 | 3 | 2 | 50 | – | – | – | CCOC(=O)C1=C(C)Nc2nc3ccc(Cl)cc3n2C1c1ccsc1 (stereo not shown) [15o] |
